Where “and” joins values, the source holds several entries; their conditions need not be identical. Equal entries are not always repeated. Toxic doses and inconclusive results are not listed.
Tested on: P388 leukemia ip, CD2F1 mice, survival T/C
Assay: NCI In Vivo Anticancer Drug Screen. Data for tumor model P388 Leukemia (intraperitoneal) in CD2F1 (CDF1) mice
Conditions: endpoint: median survival time, higher = longer survival
Procedure, shortened: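 Mice carrying the transplanted tumor received test compound or vehicle. Survival was recorded in each group, and the value is the treated-group measurement divided by that of the vehicle-treated control group.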

[1] = dose: 50.0 mg/kg/injection, schedule: Q01DX005 (ip), vehicle: saline with Tween-80
[2] = dose: 100.0 mg/kg/injection, schedule: Q01DX005 (ip), vehicle: saline with Tween-80
[3] = dose: 200.0 mg/kg/injection, schedule: Q01DX005 (ip), vehicle: saline with Tween-80

## Cc1cncn2ncnc12
dose: 100.0 mg/kg/injection, schedule: Q04DX003 (ip), vehicle: saline
  T/C: 100 % of control
dose: 200.0 mg/kg/injection, schedule: Q04DX003 (ip), vehicle: saline
  T/C: 95 % of control
dose: 400.0 mg/kg/injection, schedule: Q04DX003 (ip), vehicle: saline
  T/C: 95 % of control

## O=C(CC(=O)Oc1ccc(Cl)cc1Cl)Oc1ccc(Cl)cc1Cl
dose: 100.0 mg/kg/injection, schedule: Q04DX003 (ip), vehicle: saline with Tween-80
  T/C: 95 % of control
dose: 200.0 mg/kg/injection, schedule: Q04DX003 (ip), vehicle: saline with Tween-80
  T/C: 91 % of control
dose: 400.0 mg/kg/injection, schedule: Q04DX003 (ip), vehicle: saline with Tween-80
  T/C: 100 % of control

## CCCCN=NN/C=C/C(C)(C)C
[1]
  T/C: 115 % of control

## O=C(O)[C@@H](NC(=O)C(Cl)(Cl)Cl)[C@@H]1CC(Br)=NO1
dose: 15.0 mg/kg/injection, schedule: Q01DX005 (ip), vehicle: distilled water + Tween-80
  T/C: 107 % of control and 118 % of control and 122 % of control
dose: 30.0 mg/kg/injection, schedule: Q01DX005 (ip), vehicle: distilled water + Tween-80
  T/C: 107 % of control
dose: 120.0 mg/kg/injection, schedule: Q01DX005 (ip), vehicle: distilled water + Tween-80
  T/C: 114 % of control and 98 % of control

## CC(=O)[O][Hg][CH]1C2CC3C(C2OC(C)=O)C31 (centres undefined)
dose: 6.25 mg/kg/injection, schedule: Q01DX009 (ip), vehicle: saline with Tween-80
  T/C: 105 % of control
dose: 12.5 mg/kg/injection, schedule: Q01DX009 (ip), vehicle: saline with Tween-80
  T/C: 112 % of control

## Cc1c2ccccc2c(C)c2c1cc[n+]1ccccc21
dose: 6.25 mg/kg/injection, schedule: Q04DX003 (ip), vehicle: other
  T/C: 105 % of control
dose: 12.5 mg/kg/injection, schedule: Q04DX003 (ip), vehicle: other
  T/C: 103 % of control
dose: 25.0 mg/kg/injection, schedule: Q04DX003 (ip), vehicle: other
  T/C: 99 % of control

## C=C1C(=O)OC2C1CC(O)/C(C)=C\CCC1(C)OC21 (centres undefined)
dose: 50.0 mg/kg/injection, schedule: Q01DX009 (ip), vehicle: distilled water + Tween-80 + alcohol
  T/C: 117 % of control
dose: 70.0 mg/kg/injection, schedule: Q01DX009 (ip), vehicle: distilled water + Tween-80 + alcohol
  T/C: 117 % of control
dose: 70.0 mg/kg/injection, schedule: Q01DX009 (ip), vehicle: water
  T/C: 122 % of control
dose: 90.0 mg/kg/injection, schedule: Q01DX009 (ip), vehicle: distilled water + Tween-80 + alcohol
  T/C: 104 % of control

## C=C(C)C1Oc2ccc(C(C)=O)cc2C1O (centres undefined)
dose: 8.8 mg/kg/injection, schedule: Q01DX009 (ip), vehicle: saline
  T/C: 103 % of control
dose: 17.5 mg/kg/injection, schedule: Q01DX009 (ip), vehicle: saline
  T/C: 89 % of control
dose: 35.0 mg/kg/injection, schedule: Q01DX009 (ip), vehicle: saline
  T/C: 100 % of control

## COc1cc2c(c(OC)c1OC)-c1ccc(OC)c(=O)cc1C([N+](C)(C)C)CC2 (centres undefined)
dose: 2.5 mg/kg/injection, schedule: Q01DX009 (ip), vehicle: Klucel (hydroxypropylcellulose) (HPC)
  T/C: 94 % of control
dose: 5.0 mg/kg/injection, schedule: Q01DX009 (ip), vehicle: Klucel (hydroxypropylcellulose) (HPC)
  T/C: 100 % of control
dose: 10.0 mg/kg/injection, schedule: Q01DX009 (ip), vehicle: Klucel (hydroxypropylcellulose) (HPC)
  T/C: 103 % of control
dose: 20.0 mg/kg/injection, schedule: Q01DX009 (ip), vehicle: Klucel (hydroxypropylcellulose) (HPC)
  T/C: 100 % of control

## CC(C)N1NC1(C)C (centres undefined)
[1]
  T/C: 107 % of control
[2]
  T/C: 107 % of control
[3]
  T/C: 100 % of control

## CCn1cc(C(=O)O)c(=O)c2ccc(C)[n+](CCSC(=N)N)c21
dose: 100.0 mg/kg/injection, schedule: Q04DX002 (ip), vehicle: saline with Tween-80
  T/C: 104 % of control
dose: 200.0 mg/kg/injection, schedule: Q04DX002 (ip), vehicle: saline with Tween-80
  T/C: 99 % of control
dose: 400.0 mg/kg/injection, schedule: Q04DX002 (ip), vehicle: saline with Tween-80
  T/C: 100 % of control

## Nc1nc(N)c2cnnn2n1
[1]
  T/C: 95 % of control
[2]
  T/C: 102 % of control
[3]
  T/C: 110 % of control

## CN(C)S(=O)(=O)CCNC(=O)N(CCCl)N=O
dose: 2.5 mg/kg/injection, schedule: Q01DX005 (ip), vehicle: saline
  T/C: 100 % of control
dose: 5.0 mg/kg/injection, schedule: Q01DX005 (ip), vehicle: saline
  T/C: 104 % of control
dose: 10.0 mg/kg/injection, schedule: Q01DX005 (ip), vehicle: saline
  T/C: 119 % of control and 218 % of control
dose: 20.0 mg/kg/injection, schedule: Q01DX005 (ip), vehicle: saline
  T/C: 203 % of control and 250 % of control

## CCOC(=O)C(/C=N/NC(N)=S)CC (centres undefined)
dose: 100.0 mg/kg/injection, schedule: Q01DX001 (ip), vehicle: saline with Tween-80
  T/C: 100 % of control
dose: 200.0 mg/kg/injection, schedule: Q01DX001 (ip), vehicle: saline with Tween-80
  T/C: 99 % of control
dose: 400.0 mg/kg/injection, schedule: Q01DX001 (ip), vehicle: saline with Tween-80
  T/C: 97 % of control

## Cc1ccccc1N=Nc1ccc(N(CCCl)CCCl)cc1
dose: 50.0 mg/kg/injection, schedule: Q01DX001 (ip), vehicle: Klucel (hydroxypropylcellulose) (HPC)
  T/C: 100 % of control
dose: 100.0 mg/kg/injection, schedule: Q01DX001 (ip), vehicle: Klucel (hydroxypropylcellulose) (HPC)
  T/C: 115 % of control
dose: 200.0 mg/kg/injection, schedule: Q01DX001 (ip), vehicle: Klucel (hydroxypropylcellulose) (HPC)
  T/C: 100 % of control

## CCN(CC)CCNc1ccc(CO)c2oc3ccc(OS(=O)(=O)c4ccc(C)cc4)cc3c(=O)c12
[1]
  T/C: 99 % of control
[2]
  T/C: 106 % of control
[3]
  T/C: 122 % of control

## CN(C)Cc1ncccc1O
dose: 100.0 mg/kg/injection, schedule: Q01DX009 (ip), vehicle: saline
  T/C: 102 % of control and 95 % of control
dose: 200.0 mg/kg/injection, schedule: Q01DX009 (ip), vehicle: saline
  T/C: 100 % of control and 112 % of control
dose: 400.0 mg/kg/injection, schedule: Q01DX009 (ip), vehicle: saline
  T/C: 113 % of control

## O=C(Nc1ccc(S(=O)(=O)c2ccc(NC(=O)c3ccco3)cc2)cc1)c1ccco1
dose: 50.0 mg/kg/injection, schedule: Q01DX009 (ip), vehicle: saline with Tween-80
  T/C: 105 % of control
dose: 100.0 mg/kg/injection, schedule: Q01DX009 (ip), vehicle: saline with Tween-80
  T/C: 98 % of control
dose: 200.0 mg/kg/injection, schedule: Q01DX009 (ip), vehicle: saline with Tween-80
  T/C: 95 % of control

## COc1ccc2c(c1OC)C(=O)N1C2=Cc2c(cc3c(c2OC)OCO3)CC1N(C)C (centres undefined)
dose: 60.0 mg/kg/injection, schedule: Q01DX005 (ip), vehicle: saline
  T/C: 103 % of control
dose: 120.0 mg/kg/injection, schedule: Q01DX005 (ip), vehicle: saline
  T/C: 100 % of control

## O=C/C(=N/Nc1ccc([N+](=O)[O-])cc1)c1ccccc1
dose: 37.5 mg/kg/injection, schedule: Q01DX009 (ip), vehicle: saline with Tween-80
  T/C: 94 % of control
dose: 75.0 mg/kg/injection, schedule: Q01DX009 (ip), vehicle: saline with Tween-80
  T/C: 90 % of control
dose: 150.0 mg/kg/injection, schedule: Q01DX009 (ip), vehicle: saline with Tween-80
  T/C: 86 % of control

## O=C1CSC(=S)N1Cc1cccnc1
dose: 50.0 mg/kg/injection, schedule: Q01DX009 (ip), vehicle: Klucel (hydroxypropylcellulose) (HPC)
  T/C: 100 % of control
dose: 100.0 mg/kg/injection, schedule: Q01DX009 (ip), vehicle: Klucel (hydroxypropylcellulose) (HPC)
  T/C: 102 % of control
dose: 200.0 mg/kg/injection, schedule: Q01DX009 (ip), vehicle: Klucel (hydroxypropylcellulose) (HPC)
  T/C: 106 % of control

## Cn1c(NCCN2CCOCC2)c(C(=O)/C=C/c2ccccc2)c(=O)n(C)c1=O
[1]
  T/C: 98 % of control
[2]
  T/C: 92 % of control
[3]
  T/C: 95 % of control

## COc1cccc2c1C(=O)c1c(O)c3c(c(O)c1C2=O)C[C@@](O)(/C(C)=N/NC(=O)c1ccc(-c2ccccc2)cc1)C[C@@H]3OC1CC(N)C(O)C(C)O1 (some centres undefined)
dose: 0.12 mg/kg/injection, schedule: Q01DX009 (ip), vehicle: water
  T/C: 107 % of control
dose: 0.5 mg/kg/injection, schedule: Q01DX009 (ip), vehicle: water
  T/C: 151 % of control
dose: 1.0 mg/kg/injection, schedule: Q01DX009 (ip), vehicle: water
  T/C: 157 % of control
dose: 2.0 mg/kg/injection, schedule: Q01DX009 (ip), vehicle: water
  T/C: 163 % of control and 169 % of control
dose: 3.13 mg/kg/injection, schedule: Q01DX009 (ip), vehicle: water
  T/C: 192 % of control
dose: 4.0 mg/kg/injection, schedule: Q01DX009 (ip), vehicle: water
  T/C: 190 % of control
dose: 6.0 mg/kg/injection, schedule: Q04DX003 (ip), vehicle: water
  T/C: 106 % of control
dose: 6.25 mg/kg/injection, schedule: Q01DX001 (ip), vehicle: water
  T/C: 151 % of control
dose: 6.25 mg/kg/injection, schedule: Q01DX009 (ip), vehicle: water
  T/C: 109 % of control
dose: 8.0 mg/kg/injection, schedule: Q01DX009 (ip), vehicle: water
  T/C: 98 % of control and 91 % of control
dose: 12.5 mg/kg/injection, schedule: Q01DX001 (ip), vehicle: water
  T/C: 163 % of control
dose: 24.0 mg/kg/injection, schedule: Q04DX003 (ip), vehicle: water
  T/C: 165 % of control
dose: 25.0 mg/kg/injection, schedule: Q01DX001 (ip), vehicle: water
  T/C: 116 % of control
dose: 96.0 mg/kg/injection, schedule: Q04DX003 (ip), vehicle: water
  T/C: 98 % of control

Source: PubChem BioAssay AID330 (DTP/NCI, 2004)
